Laboratory results as given in patent US10729759B2, “Fluorocarbon-linked peptide formulation” (priority 2010, dated 2020).
“Also recorded” adds a separate entry of the source. Like-named read-outs stand apart in the source and are kept apart here.

Tests used:
[1] = assay type: physicochemical; conditions: for Further dilution in Mannitol:Water Solubility: FCP 0.167 mM, 1.33% (w/v) mannitol, cloudiness / particulates; for Dispersion in Water Solubility: FCP 1.333 mM in water, vortexed and sonicated, cloudiness (Clear/Cloudy−/Cloudy/Cloudy+) / particulates
Description: The solubility of each FCP in water was assessed. Each FCP was dispersed in 300 μl of water to a final concentration of 1.333 mM and vortexed and sonicated. The typical dispersion conditions were four sequences of three minutes bath sonication interspersed by 30 seconds vortexing. After inspection, the resulting solution was diluted with a mannitol solution (a candidate lyophilisation medium, final concentration of peptide 0.167 mM, 1.33% (w/v) mannitol). Solubility was assessed by visual observation of the cloudiness of the resulting dispersion (scaled: Clear/Cloudy−/Cloudy/Cloudy+) and presence of particulates. […]

[2] = assay type: physicochemical; conditions: 1.33% mannitol, 0.22 μm PVDF filter; for YIELD % of each FCP following sterile filtration, MIX 1: MIX 1 dispersed in water; for YIELD % of each FCP following sterile filtration, MIX 2: MIX 2 dispersed in water
[3] = assay type: physicochemical; conditions: for Percentage acetic acid (% v/v): minimum concentration for acceptable dispersibility and solubility: FCP 2 μmol/ml after acetic acid dispersion; for Visual appearance after dispersion: at the listed acetic acid concentration, FCP 2 μmol/ml
Description: In order to limit the concentration of acetic acid downstream in the formulation process and in the final product, the lowest concentration of acetic acid in water to achieve efficient dispersion and maintain visible solubility was determined for each fluorocarbon-linked peptide. When using mannitol as a cryprotectant, it is important to minimize the acetic acid concentration at the lyophilisation stage in order to achieve a stable and amorphous freeze-dried product. The minimum acetic acid concentration to achieve acceptable dispersibility and solubility of the individual fluorocarbon-linked peptides was determined. The final concentration of fluorocarbon-linked peptide after initial acetic acid dispersion was 2 μmol/ml and after dilution with mannitol, 0.250 μmol/ml.

[4] = 10 mg net/ml in 10% or 80% acetic acid

SMILES | Further dilution in Mannitol:Water Solubility [1] | Dispersion in Water Solubility [1] | YIELD % of each FCP following sterile filtration, MIX 1 [2] [%] | Percentage acetic acid (% v/v): minimum concentration for acceptable dispersibility and solubility [3] [% v/v] | Visual appearance after dispersion [3] | Ease of solubility, Cycle 1 Vortexing (10 mg net/ml in 10% (FCP1, 2, 4, 5) or 80% (FCP9, 8) acetic acid) | Ease of solubility, Cycle 1 Sonication [4] | Ease of solubility, Cycle 2 Sonication [4] | Ease of solubility, Cycle 2 Vortexing [4] | Ease of solubility, Cycle 3 Sonication [4] | Ease of solubility, Cycle 3 Vortexing [4] | Visual appearance after dispersion (10 mg net/ml in AcOH 10% or 80%) | YIELD % of each FCP following sterile filtration, MIX 2 [2] [%] | Physical stability of formulation at less than 80% (v/v) acetic acid ([3]; gel or soluble particulates formed over time)
CC[C@H](C)[C@H](NC(=O)[C@H](C)NC(=O)[C@H](CCSC)NC(=O)[C@H](Cc1c[nH]cn1)NC(=O)[C@@H](N)CCCCNC(=O)CCC(F)(F)C(F)(F)C(F)(F)C(F)(F)C(F)(F)C(F)(F)C(F)(F)C(F)(F)F)C(=O)N[C@H](C(=O)N[C@@H](CCCCN)C(=O)N[C@@H](CCCCN)C(=O)N[C@@H](Cc1ccc(O)cc1)C(=O)N[C@H](C(=O)N[C@@H](CO)C(=O)NCC(=O)N[C@@H](CCCNC(=N)N)C(=O)N[C@@H](CCC(N)=O)C(=O)N[C@@H](CCC(=O)O)C(=O)N[C@@H](CCCCN)C(=O)N[C@@H](CC(N)=O)C(=O)N1CCC[C@H]1C(=O)N[C@@H](CO)C(=O)N[C@@H](CC(C)C)C(=O)N[C@@H](CCCNC(=N)N)C(=O)N[C@@H](CCSC)C(=O)N[C@@H](CCCCN)C(=O)N[C@@H](Cc1c[nH]c2ccccc12)C(=O)N[C@@H](CCSC)C(=O)N[C@@H](CCSC)C(=O)N[C@@H](C)C(=O)N[C@@H](CCSC)C(=O)N[C@@H](CCCCN)C(=O)N[C@@H](Cc1ccc(O)cc1)C(=O)N1CCC[C@H]1C(=O)N[C@H](C(=O)N[C@H](C(=O)N[C@@H](C)C(=O)N[C@@H](CC(=O)O)C(=O)N[C@@H](CCCCN)C(N)=O)[C@@H](C)O)[C@@H](C)CC)[C@@H](C)O)[C@@H](C)CC [FCP1] | partially soluble; also recorded: Clear/Particulates | Cloudy/Particulates | 89.9 | 10 | Clear | Clear | Clear | Clear | Clear | Clear | Clear | Clear | – | –
CC[C@H](C)[C@H](NC(=O)[C@@H]1CCCN1C(=O)[C@H](C)NC(=O)[C@@H](N)CCCCNC(=O)CCC(F)(F)C(F)(F)C(F)(F)C(F)(F)C(F)(F)C(F)(F)C(F)(F)C(F)(F)F)C(=O)N[C@@H](CCSC)C(=O)N[C@@H](Cc1ccccc1)C(=O)N[C@@H](CO)C(=O)N[C@@H](CC(N)=O)C(=O)N[C@@H](CCCCN)C(=O)N[C@@H](CCSC)C(=O)N[C@@H](C)C(=O)N[C@@H](CCCNC(=N)N)C(=O)N[C@@H](CC(C)C)C(=O)NCC(=O)N[C@@H](CCCCN)C(=O)NCC(=O)N[C@@H](Cc1ccc(O)cc1)C(=O)N[C@@H](CCSC)C(=O)N[C@@H](Cc1ccccc1)C(=O)N[C@@H](CCC(=O)O)C(=O)N[C@@H](CO)C(=O)N[C@@H](CCCCN)C(=O)N[C@@H](CO)C(=O)N[C@@H](CCSC)C(=O)N[C@@H](CCCCN)C(=O)N[C@@H](CC(C)C)C(=O)N[C@@H](CCCNC(=N)N)C(=O)N[C@H](C(=O)N[C@@H](CCC(N)=O)C(=O)N[C@H](C(=O)N1CCC[C@H]1C(=O)N[C@@H](C)C(=O)N[C@@H](CCC(=O)O)C(=O)N[C@@H](CCSC)C(=O)N[C@@H](CC(C)C)C(=O)N[C@@H](C)C(N)=O)[C@@H](C)CC)[C@@H](C)O [FCP3] | partially soluble; also recorded: Clear/Particulates | Cloudy−/Particulates | 28.6 | – | – | – | – | – | – | – | – | – | – | –
CC[C@H](C)[C@H](NC(=O)[C@H](CO)NC(=O)[C@@H](NC(=O)CNC(=O)[C@H](CC(C)C)NC(=O)[C@@H](NC(=O)[C@@H](NC(=O)[C@H](CO)NC(=O)[C@H](CC(C)C)NC(=O)[C@H](CCSC)NC(=O)[C@H](CC(N)=O)NC(=O)[C@H](Cc1ccccc1)NC(=O)[C@H](CCSC)NC(=O)CNC(=O)[C@H](CCSC)NC(=O)[C@H](CCSC)NC(=O)[C@H](CCSC)NC(=O)CNC(=O)[C@@H]1CCCN1C(=O)[C@H](CO)NC(=O)[C@@H](N)CCCCNC(=O)CCC(F)(F)C(F)(F)C(F)(F)C(F)(F)C(F)(F)C(F)(F)C(F)(F)C(F)(F)F)[C@@H](C)O)C(C)C)C(C)C)C(=O)N[C@@H](CC(C)C)C(=O)N[C@@H](CC(N)=O)C(=O)N[C@@H](CC(C)C)C(=O)NCC(=O)N[C@@H](CCC(N)=O)C(=O)N[C@@H](CCCCN)C(=O)N[C@@H](CCCCN)C(=O)N[C@@H](Cc1ccc(O)cc1)C(=O)N[C@H](C(=O)N[C@@H](CCCCN)C(=O)N[C@H](C(=O)N[C@H](C(=O)N[C@@H](Cc1ccc(O)cc1)C(N)=O)[C@@H](C)O)[C@@H](C)O)[C@@H](C)O [FCP6] | partially soluble; also recorded: Clear/Particulates | Cloudy−/Particulates | 74.1 | 80 | Clear | – | – | – | – | – | – | – | 8.8 | physically unstable over time
CC[C@H](C)[C@H](NC(=O)[C@H](CO)NC(=O)[C@H](CC(C)C)NC(=O)[C@@H](NC(=O)[C@H](CC(N)=O)NC(=O)[C@H](CCCNC(=N)N)NC(=O)[C@H](Cc1ccccc1)NC(=O)[C@H](Cc1c[nH]c2ccccc12)NC(=O)[C@H](CCC(=O)O)NC(=O)[C@@H]1CCCN1C(=O)[C@H](CCC(N)=O)NC(=O)[C@H](CC(N)=O)NC(=O)[C@H](CCCCN)NC(=O)[C@@H](NC(=O)[C@@H](NC(=O)[C@H](Cc1ccc(O)cc1)NC(=O)[C@@H](N)CCCCNC(=O)CCC(F)(F)C(F)(F)C(F)(F)C(F)(F)C(F)(F)C(F)(F)C(F)(F)C(F)(F)F)[C@@H](C)CC)[C@@H](C)O)[C@@H](C)CC)C(=O)N[C@@H](C)C(=O)N1CCC[C@H]1C(=O)N[C@H](C(=O)N[C@@H](CCSC)C(=O)N[C@@H](Cc1ccccc1)C(=O)N[C@@H](CO)C(=O)N[C@@H](CC(N)=O)C(=O)N[C@@H](CCCCN)C(=O)N[C@@H](CCSC)C(=O)N[C@@H](C)C(=O)N[C@@H](CCCNC(=N)N)C(=O)N[C@@H](CC(C)C)C(=O)NCC(=O)N[C@@H](CCCCN)C(=O)NCC(=O)N[C@@H](Cc1ccc(O)cc1)C(=O)N[C@@H](CCSC)C(=O)N[C@@H](Cc1ccccc1)C(=O)N[C@@H](CCC(=O)O)C(N)=O)[C@@H](C)CC [FCP10] | partially soluble; also recorded: Clear/Particulates | Cloudy−/Particulates | – | – | – | – | – | – | – | – | – | – | 90.7 | –
CC[C@H](C)[C@H](NC(=O)[C@H](CCCNC(=N)N)NC(=O)[C@H](CCSC)NC(=O)CNC(=O)[C@H](CO)NC(=O)CNC(=O)[C@H](CCCNC(=N)N)NC(=O)[C@@H](NC(=O)[C@H](CC(N)=O)NC(=O)[C@@H](NC(=O)[C@@H](NC(=O)[C@H](CC(C)C)NC(=O)[C@H](CO)NC(=O)[C@H](CO)NC(=O)[C@H](Cc1ccccc1)NC(=O)[C@H](CCC(N)=O)NC(=O)[C@H](CCSC)NC(=O)[C@H](CCCNC(=N)N)NC(=O)[C@H](CO)NC(=O)[C@H](CCC(N)=O)NC(=O)[C@@H](N)CCCCNC(=O)CCC(F)(F)C(F)(F)C(F)(F)C(F)(F)C(F)(F)C(F)(F)C(F)(F)C(F)(F)F)[C@@H](C)O)C(C)C)C(C)C)C(=O)N[C@@H](CC(C)C)C(=O)N[C@H](C(=O)N[C@@H](CCCNC(=N)N)C(=O)NCC(=O)N[C@@H](CC(N)=O)C(=O)N[C@@H](CO)C(=O)N1CCC[C@H]1C(=O)N[C@H](C(=O)N[C@@H](Cc1ccccc1)C(=O)N[C@@H](CC(N)=O)C(=O)N[C@@H](Cc1ccc(O)cc1)C(=O)N[C@@H](CC(N)=O)C(=O)N[C@@H](CCCCN)C(N)=O)C(C)C)C(C)C [FCP11] | fully soluble; also recorded: Clear/No Particulates | fully soluble; also recorded: Clear/No Particulates | – | – | – | – | – | – | – | – | – | – | 49.4 | –
